Measurements taken from patent publication US9303006B2, “Line leaf inula flower lactone A and methods for preparing and using the same for treating myocarditis” (SHANXI ZHENDONG PILOT BIOLOGICAL SCIENCE AND TECHNOLOGY …, priority 2012, dated 2016).
Several values for one entry are separate records, joined by “and”; a condition that tells them apart may be missing. Identical values can stand only once. Entries after “also recorded” stand apart in the source; their conditions may differ.

Tests used:
[1] = test system: coxsackie B group virus B3 type Nancy strains (CVB3); experiment: Life protection (survival time) of mice infected by CVB3; assay type: in vivo, Balb/c male mice; conditions: for Survival time M: CVB3-infected mice, observed 14 days; for prolonged survival time, extended percentage: vs virus control
Procedure: (§1) The thin Leaf inula flower lactone A compound from Example 1 was used; a viral strain: coxsackie B group virus B3 type Nancy strains (CVB3) was used at a virus infection dose of 10LD50 virus 0.2 ml through abdominal cavity infection in mice. The animals used were Balb/c male mice, 13 g to 15 g, from Shanghai West S&P-Bick Experimental Animals Co., Ltd. with animal number: qualified SCXX (Shanghai), 2008-0016. The positive control medicine was human recombinant interferon alpha 2 a, YinTeFen, Shenyang Junior Pharmaceutical co., Ltd., Product batch number 20090708.
(§2) Preparation and administration: the line leaf inula flower lactone A compound was weighed, ground, and suspended in 0.5% CMC (carboxymethyl cellulose) mixture at 10 mg/ml solution. Oral administration of the medicine was conducted for once per day, every time at 0.5 ml, for 7 days.
(§3) The experimental groups included (1) the viral infection group, each group had 10 mice, were given 0.5% CMC solution and virus.
Test process was that after virus infection in mice (except the normal control group) for 2 hours, total drug delivery was performed 7 days in a row, observation was conducted until 14 days. The incidence and deaths were recorded every day, and the average survival days prolongation of life were calculated with p value calculation.

[2] = test system: coxsackie B group virus B3 type Nancy strains (CVB3); experiment: CVB3-infected mice myocardial virus measured on cell model at 7th day (heart homogenate 1:10, cell lesions); assay type: in vivo, Balb/c male mice; conditions: for 1:10 (cell lesions from myocardial homogenate) / Lesions rate % / Average disease rate % / Reduce lesions: 7th day; for 1:10 (cell lesions from myocardial homogenate) / Lesions rate %: individual mice NO 1-5, listed as leaves Inula flowers lactone A; for Average disease rate %: virus control 90%; for Reduce lesions: vs virus control
Procedure: as §1, §2, §3
(§4) Another group of 10 mice, with infection, was weighed after 7 days. Four mice were taken to detect cardiac function, and killed and dissected for collecting blood to test neutralizing antibody, heart weighing calculation index, and grinding the heart, with three resistance MEM fluid containing 10%. 1:10 dilution, on the cell model to detect coxsackie virus in mice drop degree (to observe the myocardial cell lesions) separation of virus infection.

CVB3-Infected Mice = experiment: Live body weight in CVB3-infected mice; assay type: in vivo, Balb/c male mice
Procedure: as §1, §2, §3, §4

[3] = test system: coxsackie B group virus B3 type Nancy strains (CVB3); experiment: Serum neutralizing antibody in CVB3-infected mice; assay type: in vivo, Balb/c male mice; conditions: oral treatment; concentration-response relationship by 7 days
Procedure: as §1, §2, §3
as §4, with “1:10 dilution, on the cell model to detect coxsackie virus in mice drop degree (to observe the myocardial cell lesions) separation of virus infection.” left out

mouse EAM model = experiment: Mouse experimental autoimmune myocarditis (EAM) model: HW/BW, cardiac morphology, HE pathology; assay type: in vivo, mice
Procedure: (§5) Pig myocardial myosin (PCM, 1 mg/ml; Sigma, St. Louis, Mo.) (Sigma), and equal volume of Freund's Complete Adjuvant (FCA, Sigma St. Louis, Mo.), were in an uniform emulsification and mixed into a homogeneous emulsion, where the mycobacterium tuberculosis H37Ra bead (Difco, Detroit, Mich.) with final concentration at 5 mg/ml. In the 0th day, the emulsion 0.2 ml (including antigen 200 μg) was taken and subcutaneously administered at the bilateral inguinal and multiple points under the armpit in mice. Seven days after the first immunization, the same procedure was performed to strengthen the immune once. The animals were divided into groups, each group had six mice.
(§6) Beginning on the day of immunity, the mice were given line leaf inula flower lactone A continuously for 21 days. Two dosing methods were applied:
(§7) (1) intraperitoneal injection: Line leaf inula flower lactone A of Example 1 was dissolved in phosphate buffer solution (PBS) (containing 5% DMSO (dimethyl sulfoxide)). The 4 concentration gradients were at 2.5 mg/kg/d^−1 (2.5 mg/kg every time, once a day); 5 mg/kg/d^−1; 10 mg/kg/d^−1; and 20 mg/kg/d^−1.
(2) Intragastric Administration: Line leaf inula flower lactone A suspended in 0.5% CMC-Na (carboxymethyl cellulose sodium). The 3 concentration gradients were at: 10 mg/kg/d^−1; 50 mg/kg/d^−1; and 100 mg/kg/d^−1.
(§8) Mice after 21 days were killed by taking off the neck, shearing heart, weighing and take photos, pathological section (HE hematoxylin-eosin staining), cytokine TNF-α change.
(1) heart and body weight ratio (HW/BW). Myocarditis in mice after the onset of the myocarditis should have the heart weight/body weight ratio larger than the model group, if the medication was effective, the ratio should be small and close to the normal group.
(2) Cardiac morphology. After the onset of the EAM in mice, the heart appeared swelling and pale as the result of the infiltration by inflammatory cells. Intraperitoneal injection of the line leaf inula flower lactone A (XX-3) were given at various dosages.
(4) pathology (conventional HE staining). Mice were killed by taking off the neck, heart was taken out, and residual blood was removed. Each heart was fixed in 10% formaldehyde, paraffin embedded, continuous sliced with conventional HE staining and observed under the microscope. The model group had visible focal myocardial cell degeneration necrosis, cytoplasm red dye, nuclear disappeared, with some muscle dissolved, interstitial broadening, and various inflammatory cell infiltration.

TNF-α = experiment: Serum TNF-α in the mouse EAM model; assay type: in vivo, mice
Procedure: as §5, §6, §7, §8
(3) TNF-α change. TNF-α was an inflammation factor that played an important role in the onset of the EAM. […]

## C=C1C(=O)O[C@H]2C[C@@H](C)[C@@H]3[C@@H](OC(C)=O)C[C@H](O)[C@@]3(C)[C@@H](OC(C)=O)[C@H]12 [line leaf inula flower lactone A]
[1]; 10 mg/kg oral once per day for 7 days
  Survival time M: 8.9 days
[1]; 10 mg/kg oral
  prolonged survival time, extended percentage: 21.92%
[1]; 50 mg/kg oral once per day for 7 days
  Survival time M: 9 days
[1]; 50 mg/kg oral
  prolonged survival time, extended percentage: 23.29%
[1]; 100 mg/kg oral once per day for 7 days
  Survival time M: 9.4 days
[1]; 100 mg/kg oral
  prolonged survival time, extended percentage: 28.77%
[1]; summary statement, concentration-response correlation
  activity against coxsackie virus: has activity against coxsackie virus
[2]; 10 mg/kg oral
  1:10 (cell lesions from myocardial homogenate): + (: + 50%); also recorded: ++ (++ 100%)
  Lesions rate %: 50% (4×) and 100%
  Average disease rate %: 60%
  Reduce lesions: 33.33%
[2]; 50 mg/kg oral
  1:10 (cell lesions from myocardial homogenate): ± (plus or minus: 0%); also recorded: + (: + 50%); also recorded: ++ (++ 100%)
  Lesions rate %: 25% and 50% (3×) and 100%
  Average disease rate %: 55%
  Reduce lesions: 38.89%
[2]; 100 mg/kg oral
  1:10 (cell lesions from myocardial homogenate): ± (plus or minus: 0%); also recorded: + (: + 50%)
  Lesions rate %: 25% (2×) and 50% (3×)
  Average disease rate %: 40%
  Reduce lesions: 55.56%
[2]; CVB3-infected mice, oral treatment
  effect on the coxsackie virus replication in the myocardial: inhibitory effect
CVB3-Infected Mice; 10 mg/Kg, 4 days
  Live body weight M ± SD: 15.23 ± 1.01
CVB3-Infected Mice; 10 mg/Kg, 8 days
  Live body weight M ± SD: 15.59 ± 0.89
CVB3-Infected Mice; 10 mg/Kg, 14 days
  Live body weight M ± SD: 17.92 ± 1.10
CVB3-Infected Mice; 10 mg/Kg, Before
  Live body weight M ± SD: 14.59 ± 0.71
CVB3-Infected Mice; 50 mg/Kg, 4 days
  Live body weight M ± SD: 15.14 ± 0.68
CVB3-Infected Mice; 50 mg/Kg, 8 days
  Live body weight M ± SD: 16.03 ± 0.96
CVB3-Infected Mice; 50 mg/Kg, 14 days
  Live body weight M ± SD: 18.33 ± 0.80
CVB3-Infected Mice; 50 mg/Kg, Before
  Live body weight M ± SD: 14.58 ± 0.49
CVB3-Infected Mice; 100 mg/Kg, 4 days
  Live body weight M ± SD: 15.13 ± 0.88
CVB3-Infected Mice; 100 mg/Kg, 8 days
  Live body weight M ± SD: 16.1 ± 1.05
CVB3-Infected Mice; 100 mg/Kg, 14 days
  Live body weight M ± SD: 18.21 ± 0.86
CVB3-Infected Mice; 100 mg/Kg, Before
  Live body weight M ± SD: 14.57 ± 0.55
[3]
  effect on neutralizing antibodies in the CVB3-infected mice: improved the neutralizing antibodies
Mouse EAM model; 100 mg/kg/d intragastric administration
  curative effect on EAM in mice: has certain curative effect
Mouse EAM model; intragastric administration at 100 mg/kg·d^−1
  pathology (HE staining), efficacy: worked the best
Mouse EAM model; intragastric administration, 21 days, FIG. 3
  Cardiac morphology, effect on the EAM model: has curative effect on the EAM model
Mouse EAM model; intraperitoneal injection 20 mg/kg/d^−1, 21 days
  Cardiac morphology, efficacy: worked the best efficacy
Mouse EAM model; intraperitoneal injection 20 mg/kg/d^−1, 21 days, FIG. 1
  heart and body weight ratio (HW/BW): changed HW/BW significantly
Mouse EAM model; intraperitoneal injection at 20 mg/kg·d^−1
  pathology (HE staining), efficacy: worked the best
Mouse EAM model; intraperitoneal injection of 20 mg/kg/d
  occurrence of the EAM in mice: prevents the occurrence of the EAM in mice
Mouse EAM model; intraperitoneal injection, 21 days
  most effective dose (cardiac morphology): 20 mg/kg/d^−1
Mouse EAM model; intraperitoneal injection, various dosages (2.5-20 mg/kg/d^−1), 21 days, FIG. 2
  Cardiac morphology, degree and extent of the lesion vs model and solvent control groups: various degrees of improvement
Mouse EAM model; various dosages, vs model and solvent control groups, FIG. 5
  pathology (HE staining), myocardial inflammation: had curative effect on myocardial inflammation in mice
TNF-α; intraperitoneal injection 20 mg/kg, 21 days, #P<0.05
  levels of serum TNF-α vs model group: the difference was significant
TNF-α; intraperitoneal injection, 21 days after first immunization, FIG. 4
  levels of serum TNF-α vs model group: decreased
